Results as given in patent US20210186973A1, “COMBINATION OF RIBOCICLIB AND DABRAFENIB FOR TREATING OR PREVENTING CANCER” (NOVARTIS AG, priority 2015, published 2021).
Entries after “also recorded” stand apart in the source; their conditions may differ.

Columns and labels:
Type in all cases: cell-based
[1] = tested on: 6 B-Raf mutant colorectal cancer cell lines; assay: Cell proliferation over the panel of 6 cell lines; conditions: single agent
Experimental: (§1) The compounds were dissolved in 100% DMSO (Sigma, Catalog number D2650) at concentrations of 20 mM and stored at −20° C. until use. Compounds were arrayed in drug master plates (Greiner, Catalog number 788876) and serially diluted 3-fold (7 steps) at 2000× concentration.
(§2) Colorectal cancer cell lines used for this study were obtained, cultured and processed from commercial vendors ATCC, CellBank Australia, and HSRRB (Table 1). All cell line media were supplemented with 10% FBS (HyClone, Catalog number SH30071.03). […]
(§3) Cell lines were cultured in 37° C. and 5% CO2 incubator and expanded in T-75 flasks. In all cases cells were thawed from frozen stocks, expanded through ≥1 passage using 1:3 dilutions, counted and assessed for viability using a ViCell counter (Beckman-Coulter) prior to plating. […] All cell lines were determined to be free of mycoplasma contamination as determined by a PCR detection methodology performed at Idexx Radil (Columbia, Mo., USA) and correctly identified by detection of a panel of SNPs.
(§4) Images were analyzed after adapting previously described methods (Horn, Sandmann et al. 2011) and using the Bioconductor package EBImage in R (Pau, Fuchs et al. 2010). Objects in both channels, DAPI (for Hoechst/DNA) and FITC (for Caspase 3/7), were segmented separately by adaptive thresholding and counted. […]

RKO = assay: Cell proliferation (cell count by microscopy) in RKO; conditions: Homo sapiens; single agent; RKO (BRAF, PIK3CA); 72 h; 50% of cell counts relative to DMSO
Experimental: as §1, §2, §3, §4

LS411N = assay: Cell proliferation (cell count by microscopy) in LS411N; conditions: Homo sapiens, LS-411N; single agent; LS411N (BRAF); 72 h; 50% of cell counts relative to DMSO
Experimental: as §1, §2, §3, §4

HT-29 = assay: Cell proliferation (cell count by microscopy) in HT-29; conditions: Homo sapiens; single agent; HT-29 (BRAF, PIK3CA); 72 h; 50% of cell counts relative to DMSO
Experimental: as §1, §2, §3, §4

LIM2551 = assay: Cell proliferation (cell count by microscopy) in LIM2551; conditions: single agent; LIM2551 (BRAF, PIK3CA); 72 h; 50% of cell counts relative to DMSO
Experimental: as §1, §2, §3, §4

COLO-205 = assay: Cell proliferation (cell count by microscopy) in COLO-205; conditions: Homo sapiens; single agent; COLO-205 (BRAF); 72 h; 50% of cell counts relative to DMSO
Experimental: as §1, §2, §3, §4

OUMS-23 = assay: Cell proliferation (cell count by microscopy) in OUMS-23; conditions: single agent; OUMS-23 (BRAF); 72 h; 50% of cell counts relative to DMSO
Experimental: as §1, §2, §3, §4

IC50s (in words) ([1]; in the PIK3CA mutant cells) | IC50 (HT-29) [µM] | IC50 (COLO-205) [µM] | Structure (SMILES) | IC50 (RKO) [µM] | IC50 (LS411N) [µM] | IC50 (LIM2551) [µM] | IC50 (OUMS-23) [µM] | IC50s (in words) ([1]; all but one cell line (ODMS-23))
micromolar |  |  | Cc1nc(NC(=O)N2CCC[C@H]2C(N)=O)sc1-c1ccnc(C(C)(C)C(F)(F)F)c1 [BYL719, (S)-Pyrrolidine-1,2-dicarboxylic acid 2-amide 1-({4-methyl-5-[2-(2,2,2-trifluoro-1,1-dimethyl-ethyl)-pyridin-4-yl]-thiazol-2-yl}-amide)] |  |  |  |  | 
 | 0.016 | 0.007 | CC(C)(C)c1nc(-c2cccc(NS(=O)(=O)c3c(F)cccc3F)c2F)c(-c2ccnc(N)n2)s1 [Dabrafenib, N-{3-[5-(2-Amino-4-pyrimidinyl)-2-(1,1-dimethylethyl)-1,3-thiazol-4-yl]-2-fluorophenyl}-2,6-difluorobenzenesulfonamide] | 0.24 | 0.036 | 0.018 | > 1 | nanomolar to low micromolar; also recorded: nanomolar to sub-micromolar
